The values below come from US10189838B2, “Aza-oxo-indoles for the treatment and prophylaxis of respiratory syncytial virus infection” (Hoffmann-La Roche Inc., priority 2013, dated 2019).

What is called EC50 is the midpoint of the concentration-response curve. A higher EC50 goes with a need for much substance. As usually defined, the AUC(0-t) is exposure summed from dosing to a finite time, without extrapolation to infinity. Low values mean less exposure, high ones more exposure. Broadly, the bioavailability is dose-corrected exposure relative to a reference, in per cent.

Series [1] has as its system RSV Long strain. The experiment in a line: Viral cytopathic effect (CPE) assay, RSV Long strain. The format is cell-based, Respiratory Syncytial Virus. The note with it: human respiratory syncytial virus, 144 h, cell viability after 6 days (Cell Counting kit-8). Summed up:
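Cells in DMEM with 10% FBS infected next day with RSV Long (A subtype) at a dose giving ~80–90% CPE after 6 days, alongside half-log compound dilutions. Viability at day 6 by CCK-8, absorbance 450 nm referenced to 630 nm; EC50 is concentration giving 50% of maximal protection.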
(Damage to the host cells serves as the signal in cytopathic effect assays.)

Series [2] is described as follows: Single dose PK in male ICR mouse (IV and PO). The format is in vivo. As to conditions: male ICR mice; for AUC(0-t) / bioavailability: mouse, plasma; for bioavailability: read-out: F (bioavailability). As for the experimental part: The single dose PK in male ICR mouse was performed to assess their pharmacokinetic properties. Two groups of animals were dosed via either bolus intravenous (IV) or oral gavage (PO) of the respective compound. The animals for oral administration were fasted overnight prior to dosing and food was resumed 4 hours postdose. Blood samples (approximately 400 μL) were collected via cardiac puncture after euthanasia by carbon dioxide inhalation at 2 minutes, 5 minutes, 15 minutes, 30 minutes, 1 hour, 2 hours, 4 hours, 6 hours, 8 hours, and 24 hours postdose for IV group, and at 5 minutes, 15 minutes, 30 minutes, 1 hour, 2 hours, 4 hours, 6 hours, 8 hours, and 24 hours postdose for PO group. Blood samples were placed into tubes containing sodium heparin and centrifuged at 8000 rpm for 6 minutes at 4° C. to separate plasma from the samples.
Following centrifugation, the resulting plasma was transferred to clean tubes for bioanalysis on LC/MS/MS. The pharmacokinetic parameters were calculated using non-compartmental module of WinNonlin® Professional 5.2.

Series [3] relates to RSV infection. The note with it: selected infants, intramuscularly 15 mg/kg once a month for the RSV season; cited from earlier work.

In the case of `CS(=O)(=O)CCn1c(CN2C(=O)C3(CC3)c3ccncc32)cc2cc(Cl)cnc21` [Example 2-6, 1′-({5-Chloro-1-[2-(methylsulfonyl)ethyl]-1H-pyrrolo[2,3-b]pyridin-2-yl}methyl)spiro[cyclopropane-1,3′-pyrrolo[2,3-c]pyridin]-2′(1′H)-one], the EC50 in series [1] was 27.3 nM. In series [2] (IV 5 mg/kg), this molecule had a CLz of 23.7 mL/min/kg, a t1/2z of 0.724 h and an AUC(0-t) of 3510 ng·h/mL. Further, in series [2] (PO 25 mg/kg), the “F (bioavailability)” value turned out to be 58.3%, the t1/2z came to 0.701 h and the AUC(0-t) amounted to 10200 ng·h/mL.

In turn, `CS(=O)(=O)CCn1c(CN2C(=O)C3(CC3)c3ccncc32)nc2cc(Cl)cc(F)c21` [Example 37-1, 1′-({5-Chloro-7-fluoro-1-[2-(methylsulfonyl)ethyl]-1H-benzimidazol-2-yl}methyl)spiro[cyclopropane-1,3′-pyrrolo[2,3-c]pyridin]-2′(1′H)-one] yielded a 50% effective concentration (EC50) in series [1] of 9 nM. In series [2] (IV 2 mg/kg), this molecule displayed a CLz of 44.4 mL/min/kg, a t1/2z of 0.976 h and an AUC(0-t) of 751 ng·h/mL. For the same molecule, in series [2] (PO 25 mg/kg), the t1/2z worked out at 3.74 h, the AUC(0-t) worked out at 9290 ng·h/mL and the bioavailability worked out at 99%.

For palivizumab, in series [3], the “reduction of hospitalization rate caused by RSV infection” value is 45-55%.

In series [1], `CS(=O)(=O)CCn1c(CN2C(=O)C3(CC3)c3ccncc32)nc2cc(Cl)ccc21` [Example 34-1, 1′-({5-Chloro-1-[2-(methylsulfonyl)ethyl]-1H-benzimidazol-2-yl}methyl)spiro[cyclopropane-1,3′-pyrrolo[2,3-c]pyridin]-2′(1′H)-one] came in with an EC50 of 12 nM. Also, in series [2] (IV 1.45 mg/kg), the CLz came to 64.8 mL/min/kg, the t1/2z turned out to be 10.2 h and the AUC(0-t) was 373 ng·h/mL. Also, in series [2] (PO 25 mg/kg), the t1/2z turned out to be 2.98 h, the AUC(0-t) came to 3280 ng·h/mL and the bioavailability turned out to be 51%.

In series [1], `CS(=O)(=O)CCn1c(CN2C(=O)C3(CC3)c3ccncc32)cc2cnccc21` [Example 1-14, 1′-({1-[2-(Methylsulfonyl)ethyl]-1H-pyrrolo[3,2-c]pyridin-2-yl}methyl)spiro[cyclopropane-1,3′-pyrrolo[2,3-c]pyridin]-2′(1′H)-one] registered an EC50 of 77.8 nM.

As for `CS(=O)(=O)CCCn1c(CN2C(=O)C3(CCC3)c3ccncc32)cc2cc(Cl)cnc21` [Example 4-12, 1′-({5-Chloro-1-[3-(methylsulfonyl)propyl]-1H-pyrrolo[2,3-b]pyridin-2-yl}methyl)spiro[cyclobutane-1,3′-pyrrolo[2,3-c]pyridin]-2′(1′H)-one], a half-maximal response in series [1] (EC50) required 56.8 nM.

For the molecule `O=C1N(Cc2cc3cc(Cl)ccc3n2CCCN2CCCS2(=O)=O)c2cnccc2C12CC2` [Example 7-10, 1′-({5-Chloro-1-[3-(1,1-dioxido-1,2-thiazolidin-2-yl)propyl]-1H-indol-2-yl}methyl)spiro[cyclopropane-1,3′-pyrrolo[2,3-c]pyridin]-2′(1′H)-one], the response in series [1] was half-maximal at 29 nM (EC50).

In turn, `O=C1N(Cc2nc3cc(Cl)ccc3n2CCC2CS(=O)(=O)C2)c2cnccc2C12CC2` [Example 35, 1′-({5-Chloro-1-[2-(1,1-dioxidothietan-3-yl)ethyl]-1H-benzimidazol-2-yl}methyl)spiro[cyclopropane-1,3′-pyrrolo[2,3-c]pyridin]-2′(1′H)-one] displayed an EC50 in series [1] of 1.1 nM.

As to `NS(=O)(=O)CCCn1c(CN2C(=O)C3(CC3)c3ccncc32)cc2cc(Cl)cnc21` [Example 25-3, 3-{5-Chloro-2-[(2′-oxospiro[cyclopropane-1,3′-pyrrolo[2,3-c]pyridin]-1′(2′H)-yl)methyl]-1H-pyrrolo[2,3-b]pyridin-1-yl}propane-1-sulfonamide], the EC50 in series [1] amounted to 41 nM.

As to `CS(=O)(=O)c1ccc(Cn2c(CN3C(=O)C4(CC4)c4ccncc43)cc3cc(Cl)ccc32)cc1` [Example 4-2, 1′-({5-Chloro-1-[4-(methylsulfonyl)benzyl]-1H-indol-2-yl}methyl)spiro[cyclopropane-1,3′-pyrrolo[2,3-c]pyridin]-2′(1′H)-one], it took 275 nM to reach a half-maximal effect in series [1] (EC50).

In series [1], `CS(=O)(=O)CCn1c(CN2C(=O)C3(CC3)c3ccncc32)cc2cc(F)ccc21` [Example 1-4, 1′-({5-Fluoro-1-[2-(methylsulfonyl)ethyl]-1H-indol-2-yl}methyl)spiro[cyclopropane-1,3′-pyrrolo[2,3-c]pyridin]-2′(1′H)-one] had an EC50 of 189 nM.

`O=C1N(Cc2cc3cc(Cl)ncc3n2CCCS(=O)(=O)C2CC2)c2cnccc2C12CC2` [Example 4-9, 1′-({5-Chloro-1-[3-(cyclopropylsulfonyl)propyl]-1H-pyrrolo[2,3-c]pyridin-2-yl}methyl)spiro[cyclopropane-1,3′-pyrrolo[2,3-c]pyridin]-2′(1′H)-one] showed an EC50 in series [1] of 48.7 nM.
